Measurements reported in patent US6867284B1, “Peptide inhibitors of hepatitis C virus NS3 protease” (Istituto di Ricerche di Biologia Molecolare P. Angeletti …, priority 1998, dated 2005).
Where two headings read alike, the source gives them in different places.

Molecular target: T1, HCV NS3 protease (Hepatitis C virus genotype 1b, UniProt P26663)
T1 construct: an NS3/4A complex comprising the NS3 protease domain
Experiment: Inhibition of NS3 protease (HPLC cleavage assay, NS3/4A complex with Pep4AK, substrate peptide 4AB)
Assay type: biochemical
Details: read-out: IC50
Procedure: Buffer solutions containing 80 μM Pep4AK were preincubated for 10 minutes with 10-200 nM protease and reactions were started by addition of substrate. Six duplicate data points at different substrate concentrations were used to calculate kinetic parameters. Incubation times were chosen in order to obtain <7% substrate conversion and reactions were stopped by addition of 40 μl 1% TFA. Cleavage of peptide substrates was determined by HPLC using a Merck-Hitachi chromatograph equipped with an autosampler. 80 μl samples were injected on a Lichrospher C18 reversed phase cartridge column (4×74 mm, 5 μm, Merck) and fragments were separated using a 10-40% acetonitrile gradient a 5%/min using a flow rate of 2.5 ml/min. Peak detection was accomplished by monitoring both the absorbance at 220 nm and tyrosine fluorescence (λex=260 nm, λem=305 nm). Cleavage products were quantitated by integration of chromatograms with respect to appropriate standards. Kinetic parameters were calculated from nonlinear least-squares fit of initial rates as a function of substrate concentration with the help of a Kaleidagraph software, assuming Michaelis-Menten kinetics.
Ki values of peptide inhibitors were calculated from substrate titration experiments performed in the presence of increasing amounts of inhibitor. Experimental data sets were simultaneously fitted to eq.1 using a multicurve fit macro with the help of a Sigmaplot software: V=(VmaxS)/(Km(1+[…])+S); (eq.1)
Alternatively, Ki values were derived from IC50 values, calculated using a four-parameter logistic function, according to eq.2: IC50−(1+S/Km)Ki (eq.2)

[1] = Table 4 indoline keto acids and related
[2] = Table 1 hexapeptides, cells printed in nM
[3] = Table 3 capped dipeptide keto acids

T1 sequence (P26663 1027-1208, other chains not shown): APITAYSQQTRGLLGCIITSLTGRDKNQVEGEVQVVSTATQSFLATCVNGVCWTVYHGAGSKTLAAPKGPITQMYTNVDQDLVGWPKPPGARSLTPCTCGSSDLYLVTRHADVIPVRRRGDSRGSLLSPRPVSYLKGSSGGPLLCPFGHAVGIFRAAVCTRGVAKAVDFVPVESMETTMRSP

Compound | IC50 [3] | also measured
CC(C)C[C@H](NC(=O)C1Cc2ccc(OC3CCOC3)cc2N1)C(=O)NC(CC(F)F)C(=O)C(=O)O (mixture of isomers) [Compound 10g] | – | IC50 [1]: 23 µM
CC(C)C[C@H](NC(=O)C1Cc2ccc(OCC3CCOC3)cc2N1)C(=O)NC(CC(F)F)C(=O)C(=O)O (mixture of isomers) [Compound 10h] | – | IC50 [1]: 16 µM
CC(C)C[C@H](NC(=O)C1(CC(C)C)CCC(=O)N1)C(=O)NC(CC(F)F)C(=O)C(=O)O (mixture of isomers) [Compound 11] | – | IC50 [1]: 43 µM
CC(=O)N[C@@H](CC(=O)O)C(=O)N[C@@H](CCC(=O)O)C(=O)N[C@H](C(=O)N[C@@H](CCC(=O)O)C(=O)N[C@@H](CC1CCCCC1)C(=O)NC(CC(F)F)C(=O)O)C(c1ccccc1)c1ccccc1 (single isomer, unassigned) [Compound 1b (D)] | – | IC50 (Table 1 hexapeptides, cells printed in μM): 1 µM
CC(=O)N[C@@H](CC(=O)O)C(=O)N[C@@H](CCC(=O)O)C(=O)N[C@H](C(=O)N[C@@H](CCC(=O)O)C(=O)N[C@@H](CC1CCCCC1)C(=O)NC(CC(F)F)C(=O)O)C(c1ccccc1)c1ccccc1 (single isomer, unassigned) [Compound 1b (L)] | – | IC50 [2]: 0.02 µM
CC(=O)N[C@@H](CC(=O)O)C(=O)N[C@@H](CCC(=O)O)C(=O)N[C@H](C(=O)N[C@@H](CCC(=O)O)C(=O)N[C@@H](CC1CCCCC1)C(=O)NC(C=O)CC(F)F)C(c1ccccc1)c1ccccc1 (single isomer, unassigned) [Compound 1c (D)] | – | IC50 [2]: 0.043 µM
CC(=O)N[C@@H](CC(=O)O)C(=O)N[C@@H](CCC(=O)O)C(=O)N[C@H](C(=O)N[C@@H](CCC(=O)O)C(=O)N[C@@H](CC1CCCCC1)C(=O)NC(C=O)CC(F)F)C(c1ccccc1)c1ccccc1 (single isomer, unassigned) [Compound 1c (L)] | – | IC50 [2]: 0.0005 µM
CC(C)C[C@H](NC(=O)OCc1ccccc1)C(=O)NC(CC(F)F)C(=O)C(=O)O (single isomer, unassigned) [Compound 7a] | 74 µM | –
CCCCC(=O)N[C@@H](CC(C)C)C(=O)NC(CC(F)F)C(=O)C(=O)O (single isomer, unassigned) [Compound 7b] | 56 µM | –
CC(C)C[C@H](NC(=O)CN(CC(=O)O)C(=O)OCc1ccccc1)C(=O)NC(CC(F)F)C(=O)C(=O)O (single isomer, unassigned) [Compound 7i] | 20 µM | –
CC(C)C[C@H](NC(=O)CC1(CC(=O)O)CCCC1)C(=O)NC(CC(F)F)C(=O)C(=O)O (single isomer, unassigned) [Compound 7l] | 1 µM | –
CC(C)C[C@H](NC(=O)CC1(CC(=O)O)OCCO1)C(=O)NC(CC(F)F)C(=O)C(=O)O (single isomer, unassigned) [Compound 7p] | 15 µM | –
CC(C)C[C@H](NC(=O)C1CCCCC1C(=O)O)C(=O)NC(CC(F)F)C(=O)C(=O)O (single isomer, unassigned) [Compound 8a] | 32 µM | –
CC(C)C[C@H](NC(=O)Cc1ccccc1CC(=O)O)C(=O)NC(CC(F)F)C(=O)C(=O)O (single isomer, unassigned) [Compound 8b] | 8 µM | –
CC(C)C[C@H](NC(=O)Cc1ccccc1C(=O)O)C(=O)NC(CC(F)F)C(=O)C(=O)O (single isomer, unassigned) [Compound 8e] | 13 µM | –
CC(C)C[C@H](NC(=O)Cc1cccs1)C(=O)NC(CC(F)F)C(=O)C(=O)O (single isomer, unassigned) [Compound 8f] | 42 µM | –
CC(C)C[C@H](NC(=O)c1ccccc1-c1ccccc1C(=O)O)C(=O)NC(CC(F)F)C(=O)C(=O)O (single isomer, unassigned) [Compound 8g] | 4 µM | –
CC(C)C[C@H](NC(=O)C(Oc1cccc(C(=O)O)c1)c1ccccc1)C(=O)NC(CC(F)F)C(=O)C(=O)O (single isomer, unassigned) [Compound 8h] | 6 µM | –
CC(C)C[C@H](NC(=O)[C@H](O)c1cccs1)C(=O)NC(CC(F)F)C(=O)C(=O)O (single isomer, unassigned) [Compound 8s] | 18 µM | –
CC(C)C[C@H](NC(=O)C1Cc2ccccc2N1)C(=O)NC(CC(F)F)C(=O)C(=O)O (single isomer, unassigned) [Compound 9a] | – | IC50 [1]: 50 µM
